From patent publication US12492173B2, “Herbicidal substituted N-tetrazolyl aryl carboxamides” (Bayer Aktiengesellschaft, priority 2019, dated 2025)

Assays:
Type in all cases: in vivo
Veronica persica = experiment: Post-emergence herbicidal action, VERPE; design: key: % herbicidal action vs untreated; 100 = plants died, 0 = like control
Method in brief: (§1)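 After sowing into sandy loam, plants grew 2 to 3 weeks under greenhouse conditions until one leaf, then got a spray of compound as aqueous suspension or emulsion. Roughly three weeks on, activity was estimated visually against untreated pots.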

Pharbitis purpurea = experiment: Post-emergence herbicidal action, PHBPU
Method in brief: as §1

Amaranthus retroflexus [1] = experiment: Pre-emergence herbicidal action, AMARE; design: key to Herbicidal action against AMARE: % activity: 100 = plants have died, 0 = like control plants; settings: for herbicidal activity AMARE / herbicidal action AMARE: dosage 320 g/ha; for herbicidal activity AMARE: scored visually after 3 weeks vs untreated controls (100% = plants have died)
Method in brief: (§2)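 Application took place on the soil surface immediately after sowing into sandy loam, using aqueous WP or EC preparations with 0.2% wetting agent. Visual percent scoring followed 3 weeks later, untreated pots serving as reference.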

Abutilon theophrasti = experiment: Pre-emergence herbicidal action, ABUTH; design: key to Herbicidal action against ABUTH: % activity: 100 = plants have died, 0 = like control plants; settings: for herbicidal activity ABUTH / herbicidal action ABUTH: dosage 320 g/ha; for herbicidal activity ABUTH: scored visually after 3 weeks vs untreated controls (100% = plants have died)
Method in brief: as §2

Amaranthus retroflexus [2] = experiment: Post-emergence herbicidal action, AMARE; design: key: % herbicidal action vs untreated; 100 = plants died, 0 = like control
Method in brief: as §1

Stellaria media = experiment: Post-emergence herbicidal action, STEME; design: key: % herbicidal action vs untreated; 100 = plants died, 0 = like control
Method in brief: as §1

[3] = comparative experiment, post-emergence, 20 g of a.i./ha
[4] = comparative experiment, 80 g of a.i./ha

Compound	herbicidal action VERPE (Veronica persica; Dosage 80 g/ha)	herbicidal action PHBPU (Pharbitis purpurea; Dosage 80 g/ha)	herbicidal activity AMARE (Amaranthus retroflexus [1])	herbicidal activity ABUTH (Abutilon theophrasti)	herbicidal action AMARE (Amaranthus retroflexus [2]; Dosage 80 g/ha)	herbicidal action STEME (Stellaria media; Dosage 80 g/ha)	further results
CCCn1nnnc1NC(=O)c1ccc(C(F)F)c(CSC)c1SC [Example 3-170]	90	90	100%	100%	100	100	–
CCCn1nnnc1NC(=O)c1ccc(C(F)F)c(C[S+](C)[O-])c1SC (stereo not drawn) [Example 3-171]	100	90	100%	100%	100	100	–
CCCn1nnnc1NC(=O)c1ccc(C(F)F)c(CS(C)(=O)=O)c1SC [Example 3-172]	100	100	100%	100%	100	100	–
CCCn1nnnc1NC(=O)c1ccc(C(F)(F)F)c(CS(C)(=O)=O)c1Cl [Example 3-298]	100	100	100%	100%	100	100	–
C=CCSCc1c(C(F)(F)F)ccc(C(=O)Nc2nnnn2CCC)c1Cl [Example 3-308]	80	90	100%	100%	100	100	–
CCCn1nnnc1NC(=O)c1ccc(C(F)(F)F)c(CSCC(F)(F)F)c1Cl [Example 3-311]	80	100	–	–	100	100	herbicidal action AMARE (Amaranthus retroflexus [1]): 100%; herbicidal action ABUTH (Abutilon theophrasti): 100%
CCCn1nnnc1NC(=O)c1ccc(C(F)(F)F)c(CSCC2CC2)c1Cl [Example 3-314]	–	–	100%	100%	–	–	herbicidal action VERPE (Veronica persica; post-emergence, dosage 80 g/ha): 100%; herbicidal action PHBPU (Pharbitis purpurea; post-emergence, dosage 80 g/ha): 100%; herbicidal action AMARE (Amaranthus retroflexus [2]; post-emergence, dosage 80 g/ha): 100%; herbicidal action STEME (Stellaria media; post-emergence, dosage 80 g/ha): 100%
CCCn1nnnc1NC(=O)c1ccc(C(F)F)c(CS(C)(=O)=O)c1Cl [Example 3-322]	80	90	100%	100%	90	100	–
CCCn1nnnc1NC(=O)c1ccc(C(F)F)c(CSCC)c1Cl [Example 3-323]	90	90	100%	100%	90	100	–
CCCn1nnnc1NC(=O)c1ccc(I)c(C[S+](C)[O-])c1Cl (stereo not drawn) [Example 3-363]	100	90	–	–	100	100	herbicidal action AMARE (Amaranthus retroflexus [1]): 100%; herbicidal action ABUTH (Abutilon theophrasti): 100%
CCCn1nnnc1NC(=O)c1ccc(C(F)(F)F)c(CS(C)(=O)=O)c1Br [Example 3-382]	90	100	–	–	100	100	herbicidal action AMARE (Amaranthus retroflexus [1]): 100%; herbicidal action ABUTH (Abutilon theophrasti): 100%
CCCn1nnnc1NC(=O)c1ccc(C(F)(F)F)c(C[S+]([O-])CC)c1Br (stereo not drawn) [Example 3-384]	100	80	100%	100%	90	100	–
CCS(=O)(=O)c1c(C(F)(F)F)ccc(C(=O)Nc2nnnn2C)c1Br [Example V-13, 2-bromo-3-(ethylsulfonyl)-N-(1-methyl-1-1H-tetrazol-5-yl)-4-(trifluoromethyl)benzamide, reference compound]	–	–	–	–	–	–	Herbicidal action against VERPE (Veronica persica; [3]): 0; Herbicidal action against PHBPU (Pharbitis purpurea; [3]): 0; Herbicidal action against AMARE (Amaranthus retroflexus [1]; [4]): 0; Herbicidal action against ABUTH (Abutilon theophrasti; [4]): 0; Herbicidal action against AMARE (Amaranthus retroflexus [2]; [3]): 0; Herbicidal action against STEME (Stellaria media; [3]): 0
